Consider three compounds from PMC10524218 (Clinical cancer research : an official journal of the …, 2023).

For series [1] the following is noted: human, in vivo.
For series [2], the system named is γH2AX foci in hair follicles. Description: γH2AX foci formation in hair follicles as marker of DNA double-strand breaks. The class given is in vivo, human. To be noted: hair follicles from eight patients.
The subject of a further series is SCLC. The note with it: monotherapy, SCLC ref 45; cited from earlier work.
The conditions of series [3]: single-agent sacituzumab govitecan ref 35; cited from earlier work.
A short description of series [4]: Pharmacokinetics in patient blood samples, noncompartmental analysis. To be noted: versus patients without; P=0.016; Fig. S3.

As to `CCc1c2c(nc3ccc(O[C@@H]4O[C@H](C(=O)O)[C@@H](O)[C@H](O)[C@H]4O)cc13)-c1cc3c(c(=O)n1C2)COC(=O)[C@]3(O)CC` [SN-38G], in series [1], the “SN-38G Cmax in patients experiencing fatigue” value is given as “higher”.

Regarding sacituzumab govitecan, in series [2], the “γH2AX foci in hair follicles following sacituzumab govitecan” value was “substantial increase in the number and intensity of γH2AX foci”. The Tumor responses result in the series on SCLC was “led to tumor responses in SCLC”. Moreover, the “Grade ≥ 3 neutropenia, fraction of patients” value in series [3] was “about one-third”.

For the compound `CCc1c2c(nc3ccc(O)cc13)-c1cc3c(c(=O)n1C2)COC(=O)[C@]3(O)CC` [SN-38], the “SN-38 AUC in patients experiencing lymphopenia” value in series [4] is on record as “higher”.
